From ChEMBL document CHEMBL1122176, “Synthesis and antitumor activity of 10-alkyl-10-deazaminopterins. A convenient synthesis of 10-deazaminopterin” (J Med Chem, 1982) come the findings set out here.

SMILES strings stand for the structures. pKi: −log10 of the molar value. ≈ marks a conversion by molar mass, not a printed value.

As a reminder, the IC50 is the midpoint of a concentration-inhibition curve. High values mean lower potency, low ones higher potency. By Vmax is commonly meant the rate approached at saturating substrate. As a reminder, the pKi is −log10 of the Ki, conventionally taken in molar units. In general, MIC50 refers to an inhibitory concentration at the 50% level, which refers to growth in some studies and to a panel of isolates in others. Read a high MIC50 as weaker potency. Broadly, the Km is the concentration of substrate that gives half-maximal velocity. As usually defined, the ILS is the gain in survival time of treated over control animals, in per cent.

In series [1] the target is Dihydrofolate reductase (Lactobacillus casei) (UniProt P00381). The series is described as follows: Concentration required for the 50% growth inhibition of Lactobacillus casei dihydrofolate reductase enzyme. The settings on record: Lacticaseibacillus casei.
Sequence of Dihydrofolate reductase (Lactobacillus casei) (P00381 whole entry): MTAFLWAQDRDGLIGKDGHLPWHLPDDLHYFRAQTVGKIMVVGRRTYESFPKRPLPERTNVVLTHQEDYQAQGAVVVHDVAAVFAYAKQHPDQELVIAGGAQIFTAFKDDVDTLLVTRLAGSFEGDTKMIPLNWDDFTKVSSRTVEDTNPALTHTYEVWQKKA
Series [2] has as its system Lacticaseibacillus casei. Kind of series: Concentration required for the 50% growth inhibition of Lactobacillus casei ATCC 7469 organism at 1 ng/mL folate concentration. It counts as functional, organism-based.
Series [3] deals with Enterococcus faecium. Kind of series: Concentration required for the 50% growth inhibition of Streptococcus faecium ATCC 8043 organism at 1 ng/mL folate concentration. It counts as functional, organism-based.
The subject of series [4] is Enterococcus faecium. The series is described as follows: Concentration required for the 50% growth inhibition of Streptococcus faecium MTX resist organism at 1 ng/mL folate concentration. Type of series: functional, organism-based.
The nature of series [5]: Concentration required for the 50% growth inhibition of Streptococcus faecium ATCC 8043 organism at 1 ng/mL folate concentration.
Series [6] is described as follows: The efflux rate constant of the compound. Type of series: ADME.
Series [7] is described as follows: Influx velocity of the compound. It counts as ADME.
In series [8] the target is T1, Dihydrofolate reductase (Mus musculus, UniProt P00375).
T1 sequence (P00375 whole entry): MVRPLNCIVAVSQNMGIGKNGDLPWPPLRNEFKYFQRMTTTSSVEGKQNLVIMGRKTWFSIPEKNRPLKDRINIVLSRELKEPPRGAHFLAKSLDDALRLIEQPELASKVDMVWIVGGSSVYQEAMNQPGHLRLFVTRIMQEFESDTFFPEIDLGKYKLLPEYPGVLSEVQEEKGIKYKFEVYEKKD
Kind of series: Tested for inhibition of dihydrofolate reductase enzyme.

The subject of series [9] is L1210. The series is described as follows: Minimum inhibitory concentration of compound was tested for growth inhibition of L1210 cells. Type of series: functional. The settings on record: Mus musculus.
Series [10] is described as follows: Michaelis constant of compound was determined from affinity towards carrier component of transport mechanism.
For series [11], the system named is L1210. Kind of series: % increase in lifespan was measured at 3 mg/kg dosage after sc administration. The note with it: Mus musculus.
The subject of series [12] is L1210. The series is described as follows: % increase in lifespan was measured at 15 mg/kg dosage after sc administration. The note with it: Mus musculus.
Series [13] deals with L1210. Kind of series: Antitumor activity expressed as mean survival time against L1210 leukemia cells in mice after sc administration at dose 3 mg/kg. The note with it: route subcutaneous.
Series [14] has as its system L1210. Kind of series: Antitumor activity expressed as mean survival time against L1210 leukemia cells in mice after sc administration at dose 15 mg/kg. The settings on record: route subcutaneous.
The target of series [15] is T1, Dihydrofolate reductase. Kind of series: Tested for inhibition of dihydrofolate reductase enzyme from mouse.
Series [16] deals with L1210. Kind of series: Minimum inhibitory concentration of compound was tested for growth inhibition of L1210 cells. The note with it: Mus musculus. Type of series: functional.

`CC(C)(Cc1cnc2nc(N)nc(N)c2n1)c1ccc(C(=O)O)cc1`: in series [1], the half-maximal inhibitory concentration (IC50) came out at 440 nM. Moreover, the Concentration in [2] is 3.6 ng/mL; in series [3], 0.5 ng/mL; in series [4] it was 40 ng/mL; in series [5], 0.5 ng/mL.

Molecule `CCC(Cc1cnc2nc(N)nc(N)c2n1)c1ccc(C(=O)O)cc1` (stereo not given) registered an IC50 in series [1] of 380 nM. In addition, the Concentration in [2] came out at 5.4 ng/mL; in series [3], 0.9 ng/mL; in series [4] it was 50 ng/mL; in series [5], 0.9 ng/mL.

In turn, `Nc1nc(N)c2nc(CCc3ccc(C(=O)N[C@@H](CCC(=O)O)C(=O)O)cc3)cnc2n1` yielded a K in [6] of 0.23 min⁻¹. For the same molecule, the Vmax in series [7] stood at 8.13 nM/min/g. This molecule showed a pKi in [8] of 11.68. Also, in series [9], the MIC50 amounted to 0.00061 µM (≈ 0.268 ng/mL). The Concentration was 0.01 ng/mL in series [2], 0.2 ng/mL in [3], greater than 2000 ng/mL in series [4] and 0.2 ng/mL in series [5]. In addition, the Km in series [10] is 0.96 µM. This molecule also yielded an ILS at 3 mg/kg in series [11] of 162%. The molecule also showed an ILS at 15 mg/kg in [12] of 178%. The MST is 17.3 days in series [13] and 18.4 days in series [14].

In series [6], `CCC(Cc1cnc2nc(N)nc(N)c2n1)c1ccc(C(=O)NC(CCC(=O)O)C(=O)O)cc1` (stereo not given) displayed a K of 0.2 min⁻¹. The Vmax in series [7] was 7.8 nM/min/g. In [1], this molecule displayed an IC50 of 27 nM. Also, the MIC50 in series [9] was determined as 0.00055 µM (≈ 0.257 ng/mL). For the same molecule, the Concentration in series [2] is 0.08 ng/mL; in series [3], 0.37 ng/mL; in series [4], 1300 ng/mL; in series [5], 0.37 ng/mL. Besides, in [10], the Michaelis constant (Km) was 0.89 µM. The molecule further registered an ILS at 3 mg/kg in series [11] of 170%. Also, the ILS at 15 mg/kg in series [12] was determined as 211%. In addition, the MST worked out at 17.8 days in series [13] and 20.5 days in series [14].

With `CC(Cc1cnc2nc(N)nc(N)c2n1)c1ccc(C(=O)O)cc1` (stereo not given), 420 nM corresponded to half-maximal inhibition in [1] (IC50). In addition, the Concentration is 5 ng/mL in [2], 0.72 ng/mL in series [3], 60 ng/mL in [4] and 0.72 ng/mL in series [5].

In turn, `CN(Cc1cnc2nc(N)nc(N)c2n1)c1ccc(C(=O)N[C@@H](CCC(=O)O)C(=O)O)cc1` [METHOTREXATE] displayed a K in series [6] of 0.19 min⁻¹. The Vmax in series [7] was determined as 7.77 nM/min/g. For the same molecule, in series [9], the MIC50 was 0.00271 µM (≈ 1.23 ng/mL). The Concentration in series [2] was found to be 0.01 ng/mL; in series [3], 0.05 ng/mL; in series [4] it was 3500 ng/mL. Further, the Km in [10] amounted to 3.42 µM. The ILS at 3 mg/kg in series [11] is 139%. The same molecule yielded an ILS at 15 mg/kg in series [12] of 151%. In addition, the MST in series [13] was 15.8 days; in series [14], 16.6 days.

Take `Nc1nc(N)c2nc(CNc3ccc(C(=O)N[C@@H](CCC(=O)O)C(=O)O)cc3)cnc2n1` [AMINOPTERIN]: in [6], the K turned out to be 0.21 min⁻¹. For the same molecule, the Vmax in series [7] stood at 7.83 nM/min/g. Besides, the pKi in series [15] is 11.64. For the same molecule, the MIC50 in series [16] turned out to be 0.00061 µM (≈ 0.269 ng/mL). In series [10], the Km is 1.21 µM.

`CC(C)(Cc1cnc2nc(N)nc(N)c2n1)c1ccc(C(=O)NC(CCC(=O)O)C(=O)O)cc1` (stereo not given) yielded a K in series [6] of 0.24 min⁻¹. Also, the maximum rate (Vmax) in [7] was 8.31 nM/min/g. In series [8], this molecule showed a pKi of 11.59. In series [1], this molecule returned an IC50 of 27 nM. In series [9], this molecule registered an MIC50 of 0.00058 µM (≈ 0.271 ng/mL). Also, the Concentration in series [2] is 0.04 ng/mL; in series [3], 0.25 ng/mL; in series [4] it was greater than 2000 ng/mL; in [5], 0.25 ng/mL. Besides, the Km in series [10] came to 0.93 µM. Further, the increase in life span (ILS) at 3 mg/kg in [11] worked out at 143%. Besides, the ILS at 15 mg/kg in series [12] was determined as 135%. Further, the MST in series [13] amounted to 16.1 days; in [14], 15.9 days.

`CC(Cc1cnc2nc(N)nc(N)c2n1)c1ccc(C(=O)NC(CCC(=O)O)C(=O)O)cc1` (stereo not given): in [6], the K was found to be 0.23 min⁻¹. Further, in [7], the Vmax stood at 8.02 nM/min/g. Besides, in series [8], the pKi was 11.62. In [1], the midpoint of inhibition, the IC50, lay at 28 nM. The molecule further returned an MIC50 in [9] of 0.00051 µM (≈ 0.231 ng/mL). The Concentration in series [2] stood at 0.03 ng/mL; in [3] it was 0.32 ng/mL; in series [4] it was 200 ng/mL; in series [5] it was 0.32 ng/mL. Besides, the Michaelis-Menten constant (Km) in [10] was found to be 1.01 µM. Further, in series [11], the ILS at 3 mg/kg was 181%. In [12], this molecule returned an ILS at 15 mg/kg of 235%. For the same molecule, the MST in series [13] was 18.6 days; in [14] it was 22.1 days.
